The values below come from ChEMBL document CHEMBL4627358, “A hypoxia-activated antibacterial prodrug” (Bioorg Med Chem Lett, 2020).

≈ marks a conversion by molar mass, not a printed value.

For one experiment, the system named is Staphylococcus aureus. In words: Antibacterial activity against Staphylococcus aureus ATCC 49775 assessed as bacterial growth inhibition measured after 16 to 20 hrs by CLSI protocol based broth microdilution method. Format: functional. (In general: Dilution methods test growth across graded concentrations, often in twofold steps.)
In another experiment the test system is Escherichia coli. In words: Antibacterial activity against Escherichia coli K-12 assessed as bacterial growth inhibition measured after 16 to 20 hrs by CLSI protocol based broth microdilution method. The class given is functional.

As a reminder, the MIC is the least concentration at which growth counts as inhibited. In the case of `CCCCCCCCN(Cc1c2ccccc2c(Cl)c2ccccc12)C(=O)C(N)CCCCN` (centres undefined), the MIC in the experiment on Staphylococcus aureus stood at 2 µg/mL (≈ 4.15 µM); in the experiment on Escherichia coli, 4 µg/mL (≈ 8.3 µM).
As for `CCCCCCCCN(Cc1c2ccccc2c(Cl)c2ccccc12)C(=O)C(CCCCNC(=O)OCc1ccc([N+](=O)[O-])cc1)NC(=O)OCc1ccc([N+](=O)[O-])cc1` (centres undefined), the MIC in the experiment with Staphylococcus aureus and in the experiment with Escherichia coli was greater than 256 µg/mL throughout.
